Where “and” joins values, the source holds several entries; their conditions need not be identical. Equal entries are not always repeated. Where two headings read alike, the source gives them in different places. Bridge positions count the residues as written; N and C are the ends. Ends that are not written are not given here. Peptide text beside a SMILES is read from it.
Tests used:
IDE [1] = biological target: T1, IDE (Homo sapiens, UniProt P14735); experiment: biochemical; settings: for IC50 <500 uM?: initial test at 500 uM
T1 construct: made in house; host or cells: bacteria
T1 sequence (P14735 1-1019): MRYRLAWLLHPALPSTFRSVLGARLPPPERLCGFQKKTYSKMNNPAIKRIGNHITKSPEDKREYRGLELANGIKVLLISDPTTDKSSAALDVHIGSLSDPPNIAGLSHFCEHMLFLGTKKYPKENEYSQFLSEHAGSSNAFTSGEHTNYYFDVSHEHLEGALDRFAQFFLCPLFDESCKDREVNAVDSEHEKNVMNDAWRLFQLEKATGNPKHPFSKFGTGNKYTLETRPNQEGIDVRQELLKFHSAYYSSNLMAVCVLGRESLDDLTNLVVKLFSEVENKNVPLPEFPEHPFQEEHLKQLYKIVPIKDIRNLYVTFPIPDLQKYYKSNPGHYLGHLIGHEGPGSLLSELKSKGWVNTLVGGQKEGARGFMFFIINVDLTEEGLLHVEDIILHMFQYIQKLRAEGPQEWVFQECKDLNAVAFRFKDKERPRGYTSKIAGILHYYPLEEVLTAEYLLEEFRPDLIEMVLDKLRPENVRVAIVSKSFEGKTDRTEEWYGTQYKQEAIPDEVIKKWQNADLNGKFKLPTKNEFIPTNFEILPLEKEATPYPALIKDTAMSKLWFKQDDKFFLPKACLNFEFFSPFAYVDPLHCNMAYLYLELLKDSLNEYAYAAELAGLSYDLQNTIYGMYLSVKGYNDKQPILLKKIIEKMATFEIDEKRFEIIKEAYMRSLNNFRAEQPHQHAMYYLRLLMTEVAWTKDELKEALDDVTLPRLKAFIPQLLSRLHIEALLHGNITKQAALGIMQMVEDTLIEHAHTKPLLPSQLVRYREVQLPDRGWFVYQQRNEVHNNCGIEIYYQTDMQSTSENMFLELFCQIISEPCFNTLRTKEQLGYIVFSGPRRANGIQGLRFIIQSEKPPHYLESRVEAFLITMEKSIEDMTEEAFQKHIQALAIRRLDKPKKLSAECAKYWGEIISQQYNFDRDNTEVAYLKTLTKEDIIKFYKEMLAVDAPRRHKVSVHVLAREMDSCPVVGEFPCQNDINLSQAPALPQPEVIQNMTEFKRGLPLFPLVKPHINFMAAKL
In short: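 Recombinant human IDE (1 nM, bacterially expressed) degraded FRET1 substrate (5 μM), fluoresceinated biotinylated amyloid β (500 nM) or human insulin (50 nM) in PBS with 0.05% BSA. Peptides tested included N-acetylated and C-amidated variants.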

IDE [2] = biological target: T1, IDE; experiment: biochemical; settings: for IC50 <10 uM?: initial test at 10 uM using insulin (100 nM); for remaining activity at 0.016 µM: Cmpd 0.016 uM; for remaining activity at 0.08 µM: Cmpd 0.08 uM; for remaining activity at 0.4 µM: Cmpd 0.4 uM; for remaining activity at 2 µM: Cmpd 2 uM; for remaining activity at 10 µM: Cmpd 10 uM
In short: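 Bacterially expressed recombinant human IDE (1 nM) in PBS with 0.05% BSA. Substrates: FRET1 (5 μM; fluorescence, ex 340/em 420 nm), fluoresceinated biotinylated amyloid β-protein (500 nM; fluorescence polarization, ex 488/em 525 nm), or recombinant human insulin (50 nM; ELISA).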

[3] = dose-response, individual runs, read-out: Percent Activity (normalized source data)
[4] = dose-response, 125 uM, individual runs, read-out: Percent Activity (normalized source data)
[5] = initial test, percent of initial velocity relative to DMSO-only controls, N 4, read-out: Percent activity at 500 uM, Mean
[6] = judged as IC50 <100 uM?, N 4, read-out: Percent activity at 500 uM, Mean
[7] = insulin ELISA, Runs 1-3, read-out: Percent Activity (normalized source data)
[8] = Cheng-Prusoff, KM 10 uM, substrate concentration 5 uM, read-out: Ki values, Mean
[9] = dose-response, FRET1, individual runs, read-out: IC50s, Run 1-6
[10] = dose-response, FRET1, read-out: IC50s, Mean
[11] = judged as IC50 <100 uM?, individual replicates, read-out: Percent activity at 500 uM, Replicate 1-4
[12] = substrate FRET1 5 μM, Ki from IC50 with the Cheng-Prusoff equation, read-out: Ki FRET1
[13] = substrate recombinant human insulin 50 nM, Ki from IC50 with the Cheng-Prusoff equation
[14] = dose-response, 500 uM, individual runs, read-out: Percent Activity (normalized source data)
[15] = insulin ELISA assay, dose-response, Replicates 1-3, read-out: IC50s, individual replicates
[16] = insulin ELISA assay, dose-response, N=3, read-out: IC50s, Mean

CC(C)C[C@H](NC(=O)[C@H](CO)NC(=O)[C@@H](N)CCC(N)=O)C(=O)N1CCC[C@H]1C(=O)N[C@@H](Cc1c[nH]c2ccccc12)C(=O)N[C@H]1CSSC[C@@H](C(=O)N[C@H](C(=O)N[C@H](C(N)=O)[C@@H](C)O)C(C)C)NC(=O)[C@H](Cc2c[nH]cn2)NC(=O)[C@@H]2CCCN2C(=O)[C@H](Cc2ccc(O)cc2)NC1=O [P12-3A] (H-QSLPWCYPHCVT-NH2; disulfide 6-10 (inferred))
remaining activity at 0.0005 µM (IDE [1]; FRET1, P12-3A 0.0005 uM, Replicates 4-6, read-out: Percent Activity (normalized source data)): 109%
remaining activity at 0.0016 µM (IDE [1]; FRET1, P12-3A 0.0016 uM, Replicates 4-6, read-out: Percent Activity (normalized source data)): 115%
remaining activity at 0.005 µM (IDE [1]; FRET1, P12-3A 0.005 uM, Replicates 4-6, read-out: Percent Activity (normalized source data)): 119%
remaining activity at 0.05 µM (IDE [1]; FRET1, P12-3A 0.050 uM, Replicates 4-6, read-out: Percent Activity (normalized source data)): 134%
remaining activity at 0.12 µM (IDE [1]; FRET1, P12-3A 0.12 uM, Replicates 1-3, read-out: Percent Activity (normalized source data)): 81.6%
remaining activity at 0.24 µM (IDE [1]; FRET1, P12-3A 0.24 uM, Replicates 1-3, read-out: Percent Activity (normalized source data)): 82.7%
remaining activity at 0.49 µM (IDE [1]; FRET1, P12-3A 0.49 uM, Replicates 1-3, read-out: Percent Activity (normalized source data)): 73.4%
remaining activity at 0.98 µM (IDE [1]; FRET1, P12-3A 0.98 uM, Replicates 1-3, read-out: Percent Activity (normalized source data)): 62.8%
remaining activity at 3.91 µM (IDE [1]; FRET1, P12-3A 3.91 uM, Replicates 1-3, read-out: Percent Activity (normalized source data)): 45.2%
remaining activity at 7.81 µM (IDE [1]; FRET1, P12-3A 7.81 uM, Replicates 1-3, read-out: Percent Activity (normalized source data)): 33%
remaining activity at 15.6 µM (IDE [1]; FRET1, P12-3A 15.6 uM, Replicates 1-3, read-out: Percent Activity (normalized source data)): 38.9%
remaining activity at 16 µM (IDE [1]; FRET1, P12-3A 16 uM, Replicates 4-6, read-out: Percent Activity (normalized source data)): 45.2%
remaining activity at 31.2 µM (IDE [1]; FRET1, P12-3A 31.2 uM, Replicates 1-3, read-out: Percent Activity (normalized source data)): 30.6%
remaining activity at 50 µM (IDE [1]; FRET1, P12-3A 50 uM, Replicates 4-6, read-out: Percent Activity (normalized source data)): 31.6%
remaining activity at 62.5 µM (IDE [1]; FRET1, P12-3A 62.5 uM, Replicates 1-3, read-out: Percent Activity (normalized source data)): 23.7%
remaining activity at 125 µM (IDE [1]; FRET1, P12-3A 125 uM, Replicates 1-3, read-out: Percent Activity (normalized source data)): 20.1%
remaining activity at 158 µM (IDE [1]; FRET1, P12-3A 158 uM, Replicates 4-6, read-out: Percent Activity (normalized source data)): 23.8%
remaining activity at 250 µM (IDE [1]; FRET1, P12-3A 250 uM, Replicates 1-3, read-out: Percent Activity (normalized source data)): 10.4%
remaining activity at 0.12207 µM (IDE [1]; [3]): 87.1%
remaining activity at 0.488281 µM (IDE [1]; [3]): 82.8%
remaining activity at 1.95312 µM (IDE [1]; [3]): 78.7%
remaining activity at 7.8125 µM (IDE [1]; [3]): 74%
remaining activity at 31.25 µM (IDE [1]; [3]): 40.2%
remaining activity at 125 µM (IDE [1]; [4]): 9.83%
IC50 <500 uM? (IDE [1]): YES
remaining activity at 500 µM (IDE [1]; [5]): 3.6%
remaining activity at 500 µM (IDE [1]; [6]): 17.1%
Hill slope (IDE [2]; dose-response of P12-3A against insulin degradation by IDE, Fig 3B): 0.91 ± 0.15
IC50 <10 uM? (IDE [2]): YES
remaining activity at 0.016 µM (IDE [2]; [7]): 90.2%
remaining activity at 0.08 µM (IDE [2]; [7]): 84.4%
remaining activity at 0.4 µM (IDE [2]; [7]): 76.5%
remaining activity at 2 µM (IDE [2]; [7]): 62.5%
remaining activity at 10 µM (IDE [2]; [7]): 47.7%
remaining activity at 50 µM (IDE [2]; insulin ELISA, Cmpd 50 uM, Runs 1-3, read-out: Percent Activity (normalized source data)): 28.6%
remaining activity at 0.0316228 µM (IDE [2]; resynthesized P12-3A 0.0316228 uM, individual replicates, read-out: Percent Activity (normalized source data)): 98.5%

CC(C)C[C@H](NC(=O)[C@H](CO)NC(=O)[C@@H](N)CCC(N)=O)C(=O)N1CCC[C@H]1C(=O)N[C@@H](Cc1c[nH]c2ccccc12)C(=O)N[C@H]1CSSC[C@@H](C(=O)N[C@H](C(=O)N[C@H](C(=O)O)[C@@H](C)O)C(C)C)NC(=O)[C@H](Cc2c[nH]cn2)NC(=O)[C@@H]2CCCN2C(=O)[C@H](Cc2ccc(O)cc2)NC1=O [P12-3] (H-QSLPWCYPHCVT-OH; disulfide 6-10 (inferred))
remaining activity at 0.12207 µM (IDE [1]; [3]): 91.1%
remaining activity at 0.488281 µM (IDE [1]; [3]): 84.5%
remaining activity at 1.95312 µM (IDE [1]; [3]): 84.4%
remaining activity at 7.8125 µM (IDE [1]; [3]): 65.6%
remaining activity at 31.25 µM (IDE [1]; [3]): 34.6%
remaining activity at 125 µM (IDE [1]; [4]): 11%
IC50 <500 uM? (IDE [1]): YES
remaining activity at 500 µM (IDE [1]; [5]): 2%
remaining activity at 500 µM (IDE [1]; [6]): 13.9%
IC50 <10 uM? (IDE [2]): YES
remaining activity at 0.016 µM (IDE [2]; [7]): 66.3%
remaining activity at 0.08 µM (IDE [2]; [7]): 72.2%
remaining activity at 0.4 µM (IDE [2]; [7]): 62.9%
remaining activity at 2 µM (IDE [2]; [7]): 64.4%
remaining activity at 10 µM (IDE [2]; [7]): 37.6%

QSLPWCYP-NH2 [P12-3B]
Ki (IDE [1]; [8]): 39.4 µM
IC50 (IDE [1]; [9]): 25.6 µM and 32.5 µM
IC50 (IDE [1]; [10]): 59.2 µM
IC50 <500 uM? (IDE [1]): YES
remaining activity at 500 µM (IDE [1]; initial test, percent of initial velocity relative to DMSO-only controls, individual replicates, read-out: Percent activity at 500 uM, Replicate 1-4): 13.7%
remaining activity at 500 µM (IDE [1]; [11]): 27.1%
Ki (IDE [1]; [12]): 39 ± 20 µM
IC50 (IDE [2]; from initial test at 10 uM using insulin (100 nM), read-out: IC50 (summary of results, listed in Table 1)): > 10 µM
Ki (IDE [2]; [13]): > 10 µM

VHWDFRQWWQPS [P12-1]
Ki (IDE [1]; [8]): 7.71 µM
remaining activity at 500 µM (IDE [1]; [14]): 0.0455%
IC50 (IDE [1]; [9]): 11.6 µM and 9.84 µM and 13.2 µM
IC50 (IDE [1]; [10]): 11.6 µM
IC50 <500 uM? (IDE [1]): YES
remaining activity at 500 µM (IDE [1]; [11]): 17.6%
Ki (IDE [1]; [12]): 7.7 ± 0.7 µM
Ki (IDE [2]; as restated in the Discussion, read-out: Ki (insulin)): 0.8 µM
IC50 <10 uM? (IDE [2]): YES
IC50 (IDE [2]; [15]): 1.58 µM and 1.47 µM and 1.72 µM
IC50 (IDE [2]; [16]): 1.59 µM
Ki (IDE [2]; [13]): 0.8 ± 0.04 µM

VHWDFRQWWQPS-NH2 [P12-1A]
Ki (IDE [1]; [8]): 5.3 µM
remaining activity at 0.488281 µM (IDE [1]; [3]): 88.4%
remaining activity at 500 µM (IDE [1]; [14]): 1.11%
IC50 (IDE [1]; [10]): 7.95 µM
IC50 <500 uM? (IDE [1]): YES
Ki (IDE [1]; [12]): 5 ± 0.3 µM
IC50 <10 uM? (IDE [2]): YES
IC50 (IDE [2]; [15]): 3.22 µM and 1.93 µM and 2.38 µM
IC50 (IDE [2]; [16]): 2.51 µM
Ki (IDE [2]; [13]): 1.3 ± 0.2 µM

Reference: article PMC5814047, “Peptidic inhibitors of insulin-degrading enzyme with potential for dermatological applications discovered via phage display” (PLoS ONE, 2018)
